This is an account of results in paper PMC7996328, “Design, Synthesis, and Biological Evaluation of a Series of 5- and 7-Hydroxycoumarin Derivatives as 5-HT1A Serotonin Receptor Antagonists” (Pharmaceuticals, 2021).

A short description of data set [1]: Solubility under experimental conditions of the 5-HT1A assay. In kind it is physicochemical. The note with it: reason for not testing in 5-HT1A assay. As to the method:
Compounds were dissolved in 9.5% DMSO and 0.5% Kolliphor® EL (Sigma Aldrich, Taufkirchen, Germany). Serial dilutions of the compounds tested (10^−10–10^−5 M) were incubated in triplicate with 0.8 nM [^35S]GTPγS in assay buffer (50 mM Tris-HCl, pH = 7.4, 1 mM EGTA, 3 mM MgCl2, 100 mM NaCl, 30 µM GDP) and 8-OH-DPAT (final concentration 1.4 × 10^−7 M) in the final assay volume of 250 µL. Hippocampal homogenates (15 μg/mL) were added to each tube as the 5-HT1A receptor source. The final DMSO and Kolliphor® EL concentrations were 0.95% and 0.05%, respectively. Non-specific binding was determined with 10 µM of unlabeled GTPγS. The reaction mixture was incubated for 90 min at 37 °C in a volume of 250 µL. Next, 96-well Unifilter® Plates (Perkin Elmer, Waltham, MA, USA) were presoaked for 1 h with 50 mM Tris-HCl (pH = 7.4) before harvesting. The reaction was terminated by vacuum filtration onto filter plates with the FilterMate Harvester® (Perkin Elmer, Waltham, MA, USA). The samples were then rapidly washed with 2 mL of 50 mM Tris-HCl (pH = 7.4) buffer. Filter plates were dried for 2 h at 50 °C. After drying, 45 µL of EcoScint-20 scintillant (Perkin Elmer) was added to every well. Radioactivity was counted in a Trilux MicroBeta^2 counter (Perkin Elmer). Data were analyzed with GraphPad Prism 5.0 software (GraphPad Software, San Diego, CA, USA, www.graphpad.com). Curves were fitted with a one-site non-linear regression model. Efficacy (Emax) and half maximal inhibitory concentration (IC50) were calculated from the Cheng–Prusoff equation and expressed as means ± SEM.

The target of data set [2] is T1, 5-HT1A receptor (Rattus norvegicus, UniProt P19327).
T1 construct: Hippocampal homogenates (15 μg/mL) were added to each tube as the 5-HT1A receptor source; from tissue; host or cells: rat hippocampus (male Sprague-Dawley), membrane homogenate
T1 sequence (P19327 1-422): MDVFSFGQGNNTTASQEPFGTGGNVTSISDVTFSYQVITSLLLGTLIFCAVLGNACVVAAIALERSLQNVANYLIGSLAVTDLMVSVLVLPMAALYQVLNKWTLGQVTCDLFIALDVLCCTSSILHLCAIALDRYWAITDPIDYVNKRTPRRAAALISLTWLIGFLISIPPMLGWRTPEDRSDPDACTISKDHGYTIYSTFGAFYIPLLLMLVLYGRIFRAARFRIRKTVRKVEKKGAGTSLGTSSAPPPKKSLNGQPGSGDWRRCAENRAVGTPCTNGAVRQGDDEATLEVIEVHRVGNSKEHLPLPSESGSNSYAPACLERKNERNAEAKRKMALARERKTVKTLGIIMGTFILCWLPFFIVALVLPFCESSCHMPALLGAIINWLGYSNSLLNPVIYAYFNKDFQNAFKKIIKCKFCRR
The data set is described as follows: G-protein enhancing (agonist) effect at the 5-HT1A receptor. In kind it is biochemical. The note with it: for functional character at the 5-HT1A receptor: in words.

For data set [3], the target named is T2, 5-HT2A receptor (Rattus norvegicus, UniProt P14842).
T2 construct: from tissue; host or cells: rat frontal cortex (male SD), membrane homogenate
T2 sequence (P14842 whole entry): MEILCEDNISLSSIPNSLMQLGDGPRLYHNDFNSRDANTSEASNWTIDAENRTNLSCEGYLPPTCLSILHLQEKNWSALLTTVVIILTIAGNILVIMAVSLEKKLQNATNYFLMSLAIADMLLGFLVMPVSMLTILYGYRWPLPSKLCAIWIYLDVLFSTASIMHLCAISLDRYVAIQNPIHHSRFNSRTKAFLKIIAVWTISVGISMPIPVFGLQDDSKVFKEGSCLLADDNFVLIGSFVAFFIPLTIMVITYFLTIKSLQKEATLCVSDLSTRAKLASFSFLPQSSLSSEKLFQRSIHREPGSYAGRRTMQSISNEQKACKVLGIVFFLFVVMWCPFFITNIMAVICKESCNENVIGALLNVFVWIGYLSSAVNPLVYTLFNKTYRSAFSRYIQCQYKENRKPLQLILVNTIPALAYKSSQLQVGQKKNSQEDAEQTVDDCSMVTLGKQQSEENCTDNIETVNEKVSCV
The data set is described as follows: 5-HT2A competition binding assay, [3H]ketanserin, frontal cortex homogenates. The note with it: [3H]ketanserin 1 nM, read-out: Ki (nM ± SEM) (converted).

For data set [4], the target named is T1, 5-HT1A receptor. The data set is described as follows: Antagonist activity for the 5-HT1A receptor, [35S]GTPγS assay in hippocampal homogenates. Conditions: 8-OH-DPAT 1.4 × 10^−7 M, mean ± SEM; for EC50: antagonistic activity. In kind it is biochemical.
For data set [5], the target named is 5-HT1A receptor. Conditions: previously synthesized coumarins derivatives, Figure 1; read-out: Ki, 5-HT1A receptor affinity; cited from earlier work.
Setting [6] is: G-protein enhancing effect, 5-HT1A.
Where [7] appears, read: G-protein enhancing effect, 5-HT1A, read-out: EC50 (nM ± SEM).

In general, melting point refers to the temperature, or range, at which the solid turns liquid. With `Cc1ccc(C)c(N2CCN(CCCCCOc3cc(C)cc4oc(=O)cc(C)c34)CC2)c1` [Compound 1d, 5-(5-(4-(2,5-dimethylphenyl)piperazin-1-yl)pentyloxy)-4,7-dimethyl-2H-chromen-2-one], the melting point fell in the range of 132 to 134 °C. Besides, the “solubility under experimental conditions” value in data set [1] is on record as “very poor solubility”.
With `Cc1cc(OCCCCCN2CCN(c3cccc(Br)c3)CC2)c2c(C)cc(=O)oc2c1` [Compound 1g, 5-(5-(4-(3-bromophenyl)piperazin-1-yl)pentyloxy)-4,7-dimethyl-2H-chromen-2-one], the melting point lay in the range of 107 to 109 °C. Moreover, the “solubility under experimental conditions” value in data set [1] was “very poor solubility”.
Usually Emax stands for the maximal effect, on the per cent scale that the assay sets. `Cc1cc(OCCN2CCN(c3cccc(F)c3)CC2)c2c(C)cc(=O)oc2c1` [Compound 2e, 5-(2-(4-(3-fluorophenyl)piperazin-1-yl)ethoxy)-4,7-dimethyl-2H-chromen-2-one]: the melting point is 120 to 122 °C. Also, the Emax in data set [2] (setting [6]) turned out to be 118 ± 1.48%. The EC50 in data set [2] (setting [7]) was determined as 179 ± 39.3 nM. The “functional character at the 5-HT1A receptor” value in data set [2] is reported as “weak partial agonists”.
Broadly, the Ki is a measure of affinity in units of concentration, obtained from inhibition or displacement. As for `Cc1cc(OCCN2CCN(c3cccc(Br)c3)CC2)c2c(C)cc(=O)oc2c1` [Compound 2g, 5-(4-(4-(3-bromophenyl)piperazin-1-yl)ethoxy)-4,7-dimethyl-2H-chromen-2-one], the melting point is 126 to 127 °C. Moreover, in data set [2] (setting [6]), the Emax stood at 118 ± 6.5% and the “Emax (% ± SEM)” value stood at 113 ± 6.5%. Also, in data set [2] (setting [7]), the EC50 was 5080 ± 2640 nM. Also, the EC50 in data set [2] (G-protein enhancing effect, 5-HT1A, read-out: pEC50 (converted)) was 6310 nM. Besides, the “functional character at the 5-HT1A receptor” value in data set [2] was “weak partial agonists”. For the same compound, the Ki in data set [3] was 3540 nM.
Compound `CC(=O)c1c(C)cc2oc(=O)cc(C)c2c1OCCCCCN1CCN(c2ccccc2C#N)CC1` [Compound 3j, 6-acetyl-5-(5-(4-(2-cyanophenyl)piperazin-1-yl)pentyloxy)-4,7-dimethyl-2H-chromen-2-one] yielded a melting point of 116 to 118 °C. Moreover, the “solubility under experimental conditions” value in data set [1] is on record as “very poor solubility”.
The IC50 is the concentration at which inhibition is half-maximal. Low values mean greater potency in that assay, high ones weaker potency in that assay. `CC(=O)c1c(OCCN2CCN(c3cc(C)ccc3C)CC2)ccc2c(C)cc(=O)oc12` [Compound 6d, 8-acetyl-7-(2-[4-(2,5-dimethylphenyl)piperazin-1-yl]ethoxy)-4-methylchromen-2-one]: the melting point was 96 to 98 °C. In data set [4], the IC50 was 63.1 µM and the EC50 came out at 59900 nM. Besides, the Ki in data set [3] is 2050 ± 405 nM.
Take `CC(=O)c1c(OCCN2CCN(c3cccc(F)c3)CC2)ccc2c(C)cc(=O)oc12` [Compound 6e, 8-acetyl-7-(2-[4-(3-fluorophenyl)piperazin-1-yl]ethoxy)-4-methylchromen-2-one]: the melting point was 86 to 88 °C. In data set [4], the IC50 was 100 µM and the EC50 is 98900 nM. The Ki in data set [3] was 1670 ± 274 nM.
The like results for `CC(=O)c1c(OCCN2CCN(c3ccccc3Br)CC2)ccc2c(C)cc(=O)oc12` [Compound 6f, 8-acetyl-7-(2-[4-(2-bromophenyl)piperazin-1-yl]ethoxy)-4-methylchromen-2-one] were, in that order, 145 to 147 °C, 50.1 µM, 46800 nM and 1500 ± 268 nM.
As to `CC(=O)c1c(OCCN2CCN(c3cccc(Br)c3)CC2)ccc2c(C)cc(=O)oc12` [Compound 6g, 8-acetyl-7-(2-[4-(3-bromohenyl)piperazin-1-yl]ethoxy)-4-methylchromen-2-one], the melting point fell in the range of 110 to 112 °C. Also, in data set [3], the Ki is 1490 ± 466 nM. The “solubility under experimental conditions” value in data set [1] is reported as “very poor solubility”.
The compound `CC(=O)c1c(OCCN2CCN(c3cc(C)cc(C)c3)CC2)ccc2c(C)cc(=O)oc12` [Compound 6h, 8-acetyl-7-(2-[4-(3,5-dimethylphenyl)piperazin-1-yl]ethoxy)-4-methylchromen-2-one] gave a melting point of 120 to 121 °C. In data set [4], this compound showed an IC50 of 50.1 µM and an EC50 of 47800 nM. For the same compound, in data set [3], the Ki was 479 ± 96 nM.
For `CC(=O)c1c(OCCN2CCN(c3cccc(Cl)c3Cl)CC2)ccc2c(C)cc(=O)oc12` [Compound 6i, 8-acetyl-7-(2-[4-(2,3-dichlorophenyl)piperazin-1-yl]ethoxy)-4-methylchromen-2-one] the same measures were 159 to 161 °C, 200 µM, 204000 nM and 755 ± 178 nM.
For the compound `CC(=O)c1c(OCCN2CCN(c3ccccc3C#N)CC2)ccc2c(C)cc(=O)oc12` [Compound 6j, 8-acetyl-7-(2-[4-(2-cyanophenyl)piperazin-1-yl]ethoxy)-4-methylchromen-2-one], the melting point lay within 155 to 157 °C. In data set [4], this compound had an IC50 of 7.94 µM and an EC50 of 7800 ± 1880 nM. The Ki in data set [3] is 496 ± 121 nM.
Consider `Cc1cc(OCCCN2CCN(c3ccccc3F)CC2)c2c(C)cc(=O)oc2c1` [IIa], for which the Ki in data set [5] is 0.0017 ± 5e-06 µM.
As for `Cc1cc(OCCCCN2CCN(c3ccccc3F)CC2)c2c(C)cc(=O)oc2c1` [IIb], the Ki in data set [5] is 0.003 ± 0.0001 µM.
On to `Cc1cc(OCCCN2CCN(c3cccc(Cl)c3Cl)CC2)c2c(C)cc(=O)oc2c1` [IIc], for which the Ki in data set [5] is 0.008 ± 4e-05 µM.
Take `Cc1cc(OCCCCN2CCN(c3cccc(Cl)c3Cl)CC2)c2c(C)cc(=O)oc2c1` [IId]: the Ki in data set [5] is 0.004 ± 0.0008 µM.
For the compound `Cc1cc(OCCCN2CCN(c3ccccc3C#N)CC2)c2c(C)cc(=O)oc2c1` [IIe], in data set [5], the Ki is 0.0015 ± 0.0002 µM.
Consider `Cc1cc(OCCCCN2CCN(c3ccccc3C#N)CC2)c2c(C)cc(=O)oc2c1` [IIf], for which, in data set [5], the Ki is 0.003 ± 0.0002 µM.
